# Legend:
# [1] = target: T1, Casp6-K284A (Homo sapiens, UniProt P55212, K284A); experiment: C13 dose-response, fluorescence-based activity assay on Casp6-K284A; type: biochemical; settings: Casp6-K284A; read-out: IC50 of C13 for Casp6-K284A (Fig. 4f)
# T1 construct: it only partially self-cleaved at the TEVD193 site generating ΔCasp6, LS-L and SS fragments; His (C); made in house; host or cells: E. coli BL21(DE3)pLysS
# T1 sequence (P55212 24-193): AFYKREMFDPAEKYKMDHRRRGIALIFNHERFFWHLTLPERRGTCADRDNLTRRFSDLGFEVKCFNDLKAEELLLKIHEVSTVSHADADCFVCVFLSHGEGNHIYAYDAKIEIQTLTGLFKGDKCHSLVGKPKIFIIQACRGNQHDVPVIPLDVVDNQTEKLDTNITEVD
# T1 sequence (P55212 194-293 K284A): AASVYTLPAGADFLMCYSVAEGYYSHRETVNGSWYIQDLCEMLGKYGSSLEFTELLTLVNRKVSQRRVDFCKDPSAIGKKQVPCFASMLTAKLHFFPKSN
# From the text: (§1) Figure 4 Compounds S10G and C13 inhibit Casp6 through a noncompetitive mode of inhibition. (a) Michaelis-Menten kinetic plots of Casp6 enzymatic activity in presence of 1% DMSO or increasing doses S10G (top) and C13 (bottom). Data points represent mean ± SD of three independent experiments. (b) Lineweaver-Burk plots of Casp6 inhibition with S10G (top) and C13 (bottom). Red circle indicates the point where lines converge. (c) The relationship between the slopes of lines in Lineweaver-Burk plot analyses in panel (b) and inhibitor concentration. (d) Plots of IC50 values for S10G (top) and C13 (bottom) with varying concentrations of Ac-VEID-AFC substrate. Data points represent mean ± SD from three independent experiments for each substrate concentration. (e) Binding model of C13 into CASP6 putative allosteric site, derived from molecular docking. Left: C13 (green sticks) occupies the putative allosteric site (white surface and lines; Ala-mutated residues L200 and K284 shown as purple sticks). […] Data points on the graph represent the mean ± SD, and calculated Ki values represent mean ± standard error (SE) from three independent experiments. […]
# [2] = tested on: Casp6-K284A; experiment: as above; type: biochemical, human
# From the text: as §1
# [3] = target: T2, Casp6-K284A-LS-SS (Homo sapiens, UniProt P55212, K284A); experiment: C13 dose-response and global-fit kinetics on Casp6-K284A-LS-SS; type: biochemical
# T2 construct: obtained by co-expression and purification of LS and SS subunits of WT, L200A or K284A Casp6 from E. coli; His (C); made in house; host or cells: E. coli BL21(DE3)pLysS
# T2 sequence (P55212 24-179 limits assumed): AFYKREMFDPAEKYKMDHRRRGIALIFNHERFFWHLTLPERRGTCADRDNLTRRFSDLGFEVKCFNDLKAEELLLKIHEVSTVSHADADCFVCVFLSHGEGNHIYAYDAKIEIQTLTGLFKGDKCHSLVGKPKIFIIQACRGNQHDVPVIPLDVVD
# T2 sequence (P55212 194-293 K284A limits assumed): T1 sequence (P55212 194-293 K284A)
# From the text: Figure 4 Compounds S10G and C13 inhibit Casp6 through a noncompetitive mode of inhibition. (a) Michaelis-Menten kinetic plots of Casp6 enzymatic activity in presence of 1% DMSO or increasing doses S10G (top) and C13 (bottom). Data points represent mean ± SD of three independent experiments. (b) Lineweaver-Burk plots of Casp6 inhibition with S10G (top) and C13 (bottom). Red circle indicates the point where lines converge. (c) The relationship between the slopes of lines in Lineweaver-Burk plot analyses in panel (b) and inhibitor concentration. (d) Plots of IC50 values for S10G (top) and C13 (bottom) with varying concentrations of Ac-VEID-AFC substrate. Data points represent mean ± SD from three independent experiments for each substrate concentration. (e) Binding model of C13 into CASP6 putative allosteric site, derived from molecular docking. Left: C13 (green sticks) occupies the putative allosteric site (white surface and lines; Ala-mutated residues L200 and K284 shown as purple sticks). Right: predicted interactions with Casp6 allosteric pocket residues (pink balls polar, circled blue or red for basic and acidic, respectively. Green balls = hydrophobic. Dotted-arrow: blue and green for backbone and sidechain hydrogen-bond interactions, respectively. Blue shade = solvent exposed area). Dose-response curves of C13 for Casp6-WT and Casp6-K284A (f), and copurified LS and SS of Casp6-WT-LS-SS, Casp6-L200A-LS-SS, and Casp6-K284A-LS-SS (g). Data represent mean ± SD from at least three independent experiments. (h) Global fit of kinetics data to a noncompetitive (mixed) inhibition model for Casp6-WT-LS-SS (left panel, R^2 = 0.9635), Casp6-L200A-LS-SS (middle panel, R^2 = 0.9699), and Casp6-K284A-LS-SS (right panel, R^2 = 0.9794) in the presence of 0–50 µM C13. Data points on the graph represent the mean ± SD, and calculated Ki values represent mean ± standard error (SE) from three independent experiments.
# To determine the importance of C13 interactions with L200 and K284 for C13 binding in the Casp6 allosteric pocket, we have generated Casp6-L200A and Casp6-K284A mutants and investigated inhibition with C13. In contrast to Casp6-WT, purified Casp6-L200A and Casp6-K284A underwent poor self-processing when overexpressed in E. coli from a construct encoding a full-length Casp6 (Fig. S5). Casp6-L200A partially self-processed at the TETD23 site generating full-length Casp6 and Casp6 without a prodomain (ΔCasp6). Casp6-K284A underwent complete processing at the TETD23 site but, in contrast to Casp6-WT, it only partially self-cleaved at the TEVD193 site generating ΔCasp6, LS-L and SS fragments (Fig. S5). […] Fully processed forms of Casp6-WT-LS-SS, Casp6-L200A-LS-SS, and Casp6-K284A-LS-SS were obtained by co-expression and purification of LS and SS subunits of WT, L200A or K284A Casp6 from E. coli (Fig. S5). […]
# Compounds, S10G (2.5 µM, 4.2 µM, 10 µM), and C13 (5 µM, 14 µM, 50 µM), were added to 20 nM active site titrated Casp6 and enzyme activity was measured with eight different Ac-VEID-AFC substrate concentrations (5.0 μM–200 μM) using fluorescence-based Casp6 activity assay as above. The apparent KM and Vmax values were determined through nonlinear regression analysis of Michaelis-Menten plots (v vs. [S]) using GraphPad Prism 5. The inhibition mode was determined from the pattern of converging Lineweaver-Burk plots (1/v vs. 1/[S])[54]. […]
smiles,measurement,setting,value
COC(=O)c1cc(CNC(=O)C2Cc3ccccc3O2)cc(NC(=O)c2ccco2)c1 (stereo not shown) [Compound C13],IC50,[1],46.7 ± 18.5 µM
same,fold higher IC50 for Casp6-K284A than Casp6-WT,[2],~ 2.7 fold
same,fold higher IC50 for Casp6-K284A-LS-SS compared to Casp6-WT-LS-SS,[3],1.5 fold
same,fold higher Ki for Casp6-K284A-LS-SS compared to Casp6-WT-LS-SS,[3],1.6 fold
same,"inhibition model (best global fit), Casp6-K284A-LS-SS","[3]; Ac-VEID-AFC hydrolysis, increasing substrate and C13 concentrations",noncompetitive (mixed) model inhibition
same,IC50,"[3]; copurified LS and SS, read-out: IC50 of C13 for Casp6-K284A-LS-SS (Fig. 4g)",47.8 ± 6 µM
same,Ki,"[3]; global fit to noncompetitive (mixed) model, 0–50 µM C13, mean ± SE",11.8 µM
